Measured values taken from ChEMBL document CHEMBL5465560, “Selectivity Literature for EUbOPEN Chemogenomic Library” (2024).

What was measured:
[1] = molecular target: T1, Serine/threonine-protein kinase Nek1 (Homo sapiens) (UniProt Q96PY6); assay: Selectivity interaction (Kinase panel (DSF assay)) EUB0001558a NEK1
T1 sequence (whole entry): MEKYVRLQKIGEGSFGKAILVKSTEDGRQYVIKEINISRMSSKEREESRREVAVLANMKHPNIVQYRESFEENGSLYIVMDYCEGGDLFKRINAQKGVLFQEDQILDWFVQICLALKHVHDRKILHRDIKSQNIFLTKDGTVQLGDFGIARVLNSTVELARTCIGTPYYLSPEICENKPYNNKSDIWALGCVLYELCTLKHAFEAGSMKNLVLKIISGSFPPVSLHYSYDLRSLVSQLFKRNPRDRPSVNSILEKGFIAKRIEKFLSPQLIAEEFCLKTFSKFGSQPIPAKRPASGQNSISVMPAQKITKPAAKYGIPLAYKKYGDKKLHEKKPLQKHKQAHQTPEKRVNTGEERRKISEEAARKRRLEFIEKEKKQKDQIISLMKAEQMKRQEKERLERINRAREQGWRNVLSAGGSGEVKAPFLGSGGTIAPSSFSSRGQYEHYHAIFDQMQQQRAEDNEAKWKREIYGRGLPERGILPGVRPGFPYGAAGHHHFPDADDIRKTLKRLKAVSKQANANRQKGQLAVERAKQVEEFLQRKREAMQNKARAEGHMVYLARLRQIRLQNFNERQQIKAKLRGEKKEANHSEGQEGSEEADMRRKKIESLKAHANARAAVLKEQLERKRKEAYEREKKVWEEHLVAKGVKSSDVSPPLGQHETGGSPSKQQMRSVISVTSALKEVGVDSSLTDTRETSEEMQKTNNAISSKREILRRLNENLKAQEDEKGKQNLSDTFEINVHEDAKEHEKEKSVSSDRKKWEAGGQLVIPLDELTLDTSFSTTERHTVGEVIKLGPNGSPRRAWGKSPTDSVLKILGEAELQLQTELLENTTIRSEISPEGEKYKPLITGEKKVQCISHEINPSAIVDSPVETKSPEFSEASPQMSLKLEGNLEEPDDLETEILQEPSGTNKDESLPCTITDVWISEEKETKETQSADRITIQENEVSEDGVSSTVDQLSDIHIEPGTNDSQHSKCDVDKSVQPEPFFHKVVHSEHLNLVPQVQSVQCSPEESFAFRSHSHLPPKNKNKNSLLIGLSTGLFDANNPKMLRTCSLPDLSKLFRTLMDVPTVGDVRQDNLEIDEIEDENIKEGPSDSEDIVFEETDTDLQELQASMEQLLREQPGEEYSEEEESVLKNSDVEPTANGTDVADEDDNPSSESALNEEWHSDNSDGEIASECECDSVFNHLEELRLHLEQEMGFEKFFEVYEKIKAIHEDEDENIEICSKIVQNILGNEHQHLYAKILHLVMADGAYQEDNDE

[2] = molecular target: T2, Dual specificity mitogen-activated protein kinase kinase 7 (Homo sapiens) (UniProt O14733); assay: Selectivity interaction (Kinase panel (KiNativ target engagement assay in Jurkat cells)) EUB0001635a MAP2K7; format: cell-based; details: Selectivity number of off-targets 0.0, Selectivity number of targets 233.0, Source Knowledge https://www.sciencedirect.com/science/article/pii/S2451945619300674?via%3Dihub, at 1 µM
T2 sequence (whole entry): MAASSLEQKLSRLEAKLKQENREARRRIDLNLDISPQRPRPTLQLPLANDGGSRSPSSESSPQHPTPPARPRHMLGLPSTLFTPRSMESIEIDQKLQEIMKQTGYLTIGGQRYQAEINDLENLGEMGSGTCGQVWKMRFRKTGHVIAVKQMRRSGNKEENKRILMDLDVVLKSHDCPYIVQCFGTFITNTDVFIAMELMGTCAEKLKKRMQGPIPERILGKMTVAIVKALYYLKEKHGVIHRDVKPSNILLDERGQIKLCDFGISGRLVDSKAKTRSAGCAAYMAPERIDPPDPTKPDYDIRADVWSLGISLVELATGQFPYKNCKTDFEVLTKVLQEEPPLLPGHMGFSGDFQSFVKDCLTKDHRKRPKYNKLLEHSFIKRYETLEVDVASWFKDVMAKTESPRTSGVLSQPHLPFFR

[3] = molecular target: Mitogen-activated protein kinase 11 (Homo sapiens) (UniProt Q15759); assay: Selectivity interaction (Kinase panel (KiNativ target engagement assay in Jurkat cells)) EUB0001635a MAPK11; format: cell-based; details: Selectivity number of off-targets 0.0, Selectivity number of targets 233.0, Source Knowledge https://www.sciencedirect.com/science/article/pii/S2451945619300674?via%3Dihub, at 1 µM
[4] = molecular target: T2, Dual specificity mitogen-activated protein kinase kinase 7 (Homo sapiens); assay: Selectivity interaction (ActivX KiNativ screen (kinase selectivity in THP-1 cell lysates)) EUB0000639a MAP2K7; format: subcellular; details: lysate
[5] = molecular target: Cyclin-dependent kinase 17 (Homo sapiens) (UniProt Q00537); assay: Selectivity interaction (ActivX KiNativ screen (kinase selectivity in THP-1 cell lysates)) EUB0000639a CDK17; format: subcellular; details: lysate, at 0.04 µM
[6] = molecular target: T3, Serine/threonine-protein kinase Sgk3 (Homo sapiens) (UniProt Q96BR1); assay: Selectivity interaction (Upstate Kinase Profiler service (Millipore)) EUB0000056c SGK3; details: at 1 µM
T3 sequence (whole entry): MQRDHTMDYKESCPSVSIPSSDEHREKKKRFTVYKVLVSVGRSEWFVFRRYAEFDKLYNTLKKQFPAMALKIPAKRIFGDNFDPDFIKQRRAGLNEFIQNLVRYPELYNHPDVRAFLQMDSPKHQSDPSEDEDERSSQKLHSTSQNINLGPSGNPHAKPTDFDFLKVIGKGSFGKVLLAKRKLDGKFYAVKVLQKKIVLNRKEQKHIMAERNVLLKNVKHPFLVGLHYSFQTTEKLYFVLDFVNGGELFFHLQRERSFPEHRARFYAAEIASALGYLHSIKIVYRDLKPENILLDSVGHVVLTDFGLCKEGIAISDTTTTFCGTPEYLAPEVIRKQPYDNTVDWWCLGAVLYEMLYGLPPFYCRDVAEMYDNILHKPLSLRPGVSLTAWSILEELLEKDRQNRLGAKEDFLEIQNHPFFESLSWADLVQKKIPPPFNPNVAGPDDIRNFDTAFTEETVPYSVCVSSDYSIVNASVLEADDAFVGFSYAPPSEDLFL

[7] = molecular target: Serine/threonine-protein kinase PLK1 (Homo sapiens, UniProt P53350); assay: Selectivity interaction (KinomeScan (DiscoverX)) EUB0000695a PLK1; details: at 100 nM
[8] = molecular target: Tyrosine-protein kinase ABL2 (Homo sapiens, UniProt P42684); assay: Selectivity interaction (ProQinase) EUB0000171b ABL2
Tyrosine-protein kinase ABL2, sequence (P42684 whole entry): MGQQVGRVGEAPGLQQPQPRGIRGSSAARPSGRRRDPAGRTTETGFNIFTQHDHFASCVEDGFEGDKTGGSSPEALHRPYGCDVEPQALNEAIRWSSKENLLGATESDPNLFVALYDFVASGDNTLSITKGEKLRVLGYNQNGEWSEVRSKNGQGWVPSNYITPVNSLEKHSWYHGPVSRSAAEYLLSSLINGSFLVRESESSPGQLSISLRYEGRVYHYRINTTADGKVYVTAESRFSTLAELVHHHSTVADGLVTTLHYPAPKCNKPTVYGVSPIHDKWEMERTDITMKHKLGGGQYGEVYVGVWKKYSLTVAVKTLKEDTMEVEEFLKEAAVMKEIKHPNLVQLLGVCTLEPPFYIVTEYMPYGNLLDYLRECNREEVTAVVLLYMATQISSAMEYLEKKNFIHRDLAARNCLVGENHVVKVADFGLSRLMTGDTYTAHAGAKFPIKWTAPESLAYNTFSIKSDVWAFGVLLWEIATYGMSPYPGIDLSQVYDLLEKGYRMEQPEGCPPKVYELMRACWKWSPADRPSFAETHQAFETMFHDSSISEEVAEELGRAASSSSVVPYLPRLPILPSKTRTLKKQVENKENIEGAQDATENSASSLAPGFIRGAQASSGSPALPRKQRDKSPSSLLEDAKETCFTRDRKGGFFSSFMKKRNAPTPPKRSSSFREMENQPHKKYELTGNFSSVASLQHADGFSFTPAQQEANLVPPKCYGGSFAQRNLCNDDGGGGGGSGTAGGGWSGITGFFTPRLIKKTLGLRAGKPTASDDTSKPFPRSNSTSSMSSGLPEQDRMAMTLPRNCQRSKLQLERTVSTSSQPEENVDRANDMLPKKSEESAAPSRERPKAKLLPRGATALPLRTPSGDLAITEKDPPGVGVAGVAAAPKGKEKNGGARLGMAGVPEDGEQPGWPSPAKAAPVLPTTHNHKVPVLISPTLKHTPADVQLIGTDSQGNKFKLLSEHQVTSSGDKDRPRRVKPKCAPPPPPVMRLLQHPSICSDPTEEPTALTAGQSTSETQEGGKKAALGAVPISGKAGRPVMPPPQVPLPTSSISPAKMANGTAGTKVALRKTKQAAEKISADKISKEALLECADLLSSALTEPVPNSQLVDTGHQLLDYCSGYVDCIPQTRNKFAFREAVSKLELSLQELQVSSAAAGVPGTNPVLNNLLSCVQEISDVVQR

Cyclin-dependent kinase 17 (Homo sapiens), sequence (Q00537 whole entry, looked up): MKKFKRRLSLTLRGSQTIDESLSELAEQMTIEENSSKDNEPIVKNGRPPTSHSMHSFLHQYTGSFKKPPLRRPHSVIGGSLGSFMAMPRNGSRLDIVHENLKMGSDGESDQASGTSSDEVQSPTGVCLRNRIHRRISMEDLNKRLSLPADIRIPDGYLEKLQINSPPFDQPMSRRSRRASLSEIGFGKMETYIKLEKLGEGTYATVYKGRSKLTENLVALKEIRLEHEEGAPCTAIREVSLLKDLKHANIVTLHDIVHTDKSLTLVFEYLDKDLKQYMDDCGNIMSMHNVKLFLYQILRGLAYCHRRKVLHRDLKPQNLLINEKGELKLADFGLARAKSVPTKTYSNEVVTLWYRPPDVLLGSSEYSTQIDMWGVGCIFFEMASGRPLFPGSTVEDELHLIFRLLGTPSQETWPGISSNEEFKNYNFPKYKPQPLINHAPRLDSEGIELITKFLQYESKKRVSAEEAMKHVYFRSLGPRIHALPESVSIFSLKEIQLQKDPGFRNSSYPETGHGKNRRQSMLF
Serine/threonine-protein kinase PLK1, sequence (P53350 whole entry): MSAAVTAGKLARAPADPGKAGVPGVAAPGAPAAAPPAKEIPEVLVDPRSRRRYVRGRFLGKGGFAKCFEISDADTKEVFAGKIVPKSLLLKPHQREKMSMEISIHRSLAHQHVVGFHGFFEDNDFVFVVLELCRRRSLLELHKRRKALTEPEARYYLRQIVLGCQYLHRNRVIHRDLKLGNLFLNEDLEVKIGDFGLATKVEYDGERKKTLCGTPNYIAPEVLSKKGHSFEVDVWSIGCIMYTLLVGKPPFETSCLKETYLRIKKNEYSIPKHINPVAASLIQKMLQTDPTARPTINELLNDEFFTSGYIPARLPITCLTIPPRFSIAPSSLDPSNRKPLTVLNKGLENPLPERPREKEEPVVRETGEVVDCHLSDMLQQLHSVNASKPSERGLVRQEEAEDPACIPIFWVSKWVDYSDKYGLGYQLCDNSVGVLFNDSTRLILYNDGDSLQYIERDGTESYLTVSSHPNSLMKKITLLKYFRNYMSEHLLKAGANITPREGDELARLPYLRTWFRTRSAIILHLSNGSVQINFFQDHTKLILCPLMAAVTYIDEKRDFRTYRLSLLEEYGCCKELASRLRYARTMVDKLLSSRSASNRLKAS
Mitogen-activated protein kinase 11 (Homo sapiens), sequence (Q15759 whole entry): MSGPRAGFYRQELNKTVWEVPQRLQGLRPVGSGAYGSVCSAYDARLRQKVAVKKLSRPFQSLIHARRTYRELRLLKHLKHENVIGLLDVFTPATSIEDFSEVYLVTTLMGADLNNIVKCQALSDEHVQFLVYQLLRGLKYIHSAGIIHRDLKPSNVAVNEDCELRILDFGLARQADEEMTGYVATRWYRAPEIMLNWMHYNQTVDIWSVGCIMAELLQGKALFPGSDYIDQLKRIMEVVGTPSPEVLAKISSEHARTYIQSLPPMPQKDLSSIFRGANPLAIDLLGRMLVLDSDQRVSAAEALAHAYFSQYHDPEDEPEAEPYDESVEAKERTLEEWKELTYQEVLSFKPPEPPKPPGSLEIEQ

Compound `CC(C)(O)[C@H](F)CN1Cc2cc(NC(=O)c3cnn4cccnc34)c(N3CCOCC3)cc2C1=O` has a dTM [1] of -1.2 K.
In the case of `C=CC(=O)Nc1ccc(C(=O)Nc2[nH]nc3c2CN(C(=O)N[C@H](CN(C)C)c2ccccc2)C3(C)C)cc1`, the % of engagement [2] is reported as 22.4% and the % of engagement [3] is reported as -9.9%.
Compound `CC[C@@H]1[C@H](F)C(=O)N[C@@H]1COc1nccc2cc(C(N)=O)c(OC)cc12` [ZIMLOVISERTIB] has a % of inhibition ([4]; at 0.01 µM) of 7.8%, a % of inhibition ([4]; at 0.04 µM) of 0.6% and a % of inhibition ([4]; at 0.2 µM) of 2.5%. It also gave a % of inhibition ([4]; at 1 µM) of 2.2%, a % of inhibition ([4]; at 5 µM) of -7.1% and a % of inhibition [5] of 1.7%.
Work on `Cc1ccc(-c2ccc3c(ccc4sc5c(c43)NC[C@@H](C)NC5=O)n2)cn1` yielded a % of inhibition [6] of -1%.
`Cc1cc(F)c(C(=O)Nc2cccc(-c3nncn3C(C)C)n2)cc1-n1cnc(C2CC2)c1` gave a % of control [7] of 100%.
`C=CC(=O)Nc1cccc(C(=O)Nc2ccc(Nc3cc(-c4[nH]c(SC)nc4C)ccn3)cc2)c1` was tested, and the % of control ([8]; at 1 µM) was 74% and the % of control ([8]; at 5 µM) was 84%.
